Data as given in paper PMC9512702 (Nature Chemical Biology, 2022).
≈ marks a conversion by molar mass, not a printed value. Where “and” joins values, the source holds several entries; their conditions need not be identical. Equal values may be shown once. Where a SMILES comes first, the peptide text is derived from it. [ ]: non-standard residue; d: D form. Cha = N[C@@H](CC1CCCCC1)C(=O)O; Aib = CC(C)(N)C(=O)O

How the values were obtained:
[1] = molecular target: SARS-CoV-2 RBD binding to immobilized ACE2 (Severe acute respiratory syndrome coronavirus 2, UniProt P0DTC2); test: biochemical
SARS-CoV-2 RBD = SARS-CoV-2 RBD (Severe acute respiratory syndrome coronavirus 2, UniProt P0DTC2); test: biochemical; format: binding; details: KD (direct binding to RBD)
[2] = Cell viability (MTT) assay, Vero-E6; format: cell-based, monkey; details: monkey; Vero-E6 cells, MTT, 20 μM (highest concentration tested), 48 h
Procedure: (§1) The cell viability assay was performed by using the MTT (3-(4,5-dimethylthiazol-2-yl)-2,5-diphenyltetrazolium bromide) assay. […] The next day, 50 μl of media was removed from each well and 50 μl of the peptide was added in a dose-dependent manner. 10% DMSO (final concentration v/v) was used as a positive control for the induction of cytotoxicity. […] The plate was incubated for another 4 h in the humidified CO2 incubator, after which 100 μl of dissolving solution (10% SDS in 0.01 M HCl) was added to each well. The plate was then incubated in a CO2 incubator overnight. The next day, the plate was read for absorbance at 570 nm. The percentage viability of cells was recorded in comparison to the untreated cells.

[3] = Solubility measurement (peptide concentration in saturated solution); details: sodium-phosphate buffer, pH 7.4, aqueous buffer, thermodynamic from solid
Procedure: Approximately 2 mg of each peptide was added to 500 µl of buffer in 1.5-ml Eppendorf tubes. The tubes were shaken at 25 °C for 2 h on a 900 r.p.m. vortex shaker. The samples were centrifuged at 12,000 r.p.m. for 15 min to remove the precipitate and the supernatant was analyzed by ultraviolet–visible light (UV–vis) spectrometry.

Vero-E6 cells = test: Cell viability (MTT) assay, Vero-E6; format: cell-based, monkey; details: Vero-E6 cytotoxicity vs pseudovirus IC50
Procedure: as §1

Structure (SMILES) | IC50 [1] [nM] | Kd (SARS-CoV-2 RBD; re-analyzed) | viability at 48 h, 20 µM [2] [%] | solubility thermodynamic at 2 h [3] [µM] | Kd (SARS-CoV-2 RBD) [nM] | Selectivity index (50% cytotoxic concentration divided by IC50) (Vero-E6 cells)
CC[C@H](C)[C@H](NC(=O)[C@H](CC(C)C)NC(=O)[C@H](CC(=O)O)NC(=O)[C@H](CO)NC(=O)[C@@H](NC(=O)[C@H](CCCNC(=N)N)NC(=O)[C@H](CCSC)NC(=O)[C@H](CO)NC(=O)[C@H](C)NC(=O)[C@H](CCC(=O)O)NC(=O)C(C)(C)NC(=O)[C@H](CC(=O)O)NC(=O)[C@@H](C)NC(=O)[C@H](CC(C)C)NC(=O)[C@H](CCC(=O)O)NC(=O)[C@H](CC(=O)O)NC(=O)[C@H](CC(C)C)NC(=O)[C@H](CC(C)C)NC(=O)[C@H](CCCNC(=N)N)NC(=O)[C@H](CCSC)NC(=O)[C@@H](NC(=O)[C@H](CCC(=O)O)NC(=O)[C@H](Cc1ccc(O)cc1)NC(=O)[C@@H](NC(=O)[C@H](CCCCN)NC(=O)[C@H](CCC(N)=O)NC(=O)[C@H](CC(C)C)NC(=O)[C@@H](NC(=O)[C@H](Cc1c[nH]c2ccccc12)NC(=O)[C@H](CCC(=O)O)NC(=O)[C@H](CCCCN)NC(=O)[C@@H](N)CC(=O)O)[C@@H](C)CC)[C@@H](C)CC)[C@@H](C)CC)C(C)C)C(=O)N[C@@H](Cc1ccc(O)cc1)C(=O)N[C@@H](CCC(=O)O)C(=O)N[C@@H](Cc1ccccc1)C(=O)N[C@@H](CCSC)C(=O)N[C@@H](CCCCN)C(=O)N[C@@H](CCCCN)C(N)=O [SIH-5] (H-DKEWILQKIYEIMRLLDEL[dA]D[Aib]EASMRVSDLIYEFMKK-NH2) | 125 to 250 | ~0.9 nM and 0.9 nM | > 75 | > 700 |  | 
CC[C@H](C)[C@H](NC(=O)[C@H](CC(C)C)NC(=O)[C@H](CC(=O)O)NC(=O)[C@H](CO)NC(=O)[C@@H](NC(=O)[C@H](CCCNC(=N)N)NC(=O)[C@H](CCSC)NC(=O)[C@H](CO)NC(=O)[C@H](C)NC(=O)[C@H](CCC(=O)O)NC(=O)C(C)(C)NC(=O)[C@H](CC(=O)O)NC(=O)[C@@H](C)NC(=O)[C@H](CC(C)C)NC(=O)[C@H](CCC(=O)O)NC(=O)[C@H](CC(=O)O)NC(=O)[C@H](CC(C)C)NC(=O)[C@H](CC(C)C)NC(=O)[C@H](CCCNC(=N)N)NC(=O)[C@H](CCSC)NC(=O)[C@@H](NC(=O)[C@H](CCC(=O)O)NC(=O)[C@H](Cc1ccc(O)cc1)NC(=O)[C@@H](NC(=O)[C@H](CCCCN)NC(=O)[C@H](CCC(N)=O)NC(=O)[C@H](CC(C)C)NC(=O)[C@@H](NC(=O)[C@H](Cc1c[nH]c2ccccc12)NC(=O)[C@H](CCC(=O)O)NC(=O)[C@H](CCCCN)NC(=O)[C@@H](N)CC(=O)O)[C@@H](C)CC)[C@@H](C)CC)[C@@H](C)CC)C(C)C)C(=O)N[C@@H](Cc1ccc(O)cc1)C(=O)N[C@@H](CCC(=O)O)C(=O)N[C@@H](CC1CCCCC1)C(=O)N[C@@H](CCSC)C(=O)N[C@@H](CCCCN)C(=O)N[C@@H](CCCCN)C(N)=O [SIH-11] (H-DKEWILQKIYEIMRLLDEL[dA]D[Aib]EASMRVSDLIYE[Cha]MKK-NH2) | 125 to 250 |  | > 75 |  | 1.3 | > 50,000
CC[C@H](C)[C@H](NC(=O)[C@H](CC(C)C)NC(=O)[C@H](CC(=O)O)NC(=O)[C@H](CO)NC(=O)[C@@H](NC(=O)[C@H](CCCNC(=N)N)NC(=O)[C@H](CCSC)NC(=O)[C@H](CO)NC(=O)[C@H](C)NC(=O)[C@H](CCC(=O)O)NC(=O)C(C)(C)NC(=O)[C@H](Cc1c[nH]cn1)NC(=O)CNC(=O)[C@H](CC(C)C)NC(=O)[C@H](CCC(=O)O)NC(=O)[C@H](CC(=O)O)NC(=O)[C@H](CC(C)C)NC(=O)[C@H](CC(C)C)NC(=O)[C@H](CCCNC(=N)N)NC(=O)[C@H](CCSC)NC(=O)[C@@H](NC(=O)[C@H](CCC(=O)O)NC(=O)[C@H](Cc1ccc(O)cc1)NC(=O)[C@@H](NC(=O)[C@H](CCCCN)NC(=O)[C@H](CCC(N)=O)NC(=O)[C@H](CC(C)C)NC(=O)[C@@H](NC(=O)[C@H](Cc1c[nH]c2ccccc12)NC(=O)[C@H](CCC(=O)O)NC(=O)[C@H](CCCCN)NC(=O)[C@@H](N)CC(=O)O)[C@@H](C)CC)[C@@H](C)CC)[C@@H](C)CC)C(C)C)C(=O)N[C@@H](Cc1ccc(O)cc1)C(=O)N[C@@H](CCC(=O)O)C(=O)N[C@@H](Cc1ccccc1)C(=O)N[C@@H](CCSC)C(=O)N[C@@H](CCCCN)C(=O)N[C@@H](CCCCN)C(N)=O [SIH-2] (H-DKEWILQKIYEIMRLLDELGH[Aib]EASMRVSDLIYEFMKK-NH2) | 1250 to 2500 |  |  | 32 (≈ 149 µg/mL) |  | 
